Reference: patent publication US20030176358A1, “METHOD OF TREATING ENVIRONMENTAL STRESS” (priority 1997, published 2003)

Legend:
[1] = tested on: medial aspect of a human forearm exposed to tobacco smoke or exhaust gas; test: Testing of suppression of a reduction in the corneum moisture content; type: in vivo; conditions: 1.0 wt % aqueous solution applied on human forearm; exposure 10 minutes a day for three months; Corneometer
Experimental: The floating fine particles exposure apparatus shown in FIG. 1 was used to expose a testee's skin to tobacco (with […] of tar and 2.4 mg of nicotine) smoke or exhaust gas fine particles sampled from an exhaust outlet of an automobile for 10 minutes per day for three months consecutively by bringing the medial aspect of the testee's forearm near the discharge port 14 of the floating fine particles of this exposure apparatus 10 (Exposure apparatus 10 uses a three-mouthed flask 11. That is, one of the mouths of the three-mouthed flask is used as an air inlet 12, another is used as an inlet 13 for floating fine particles such as tobacco smoke, and the third mouth is used as a discharge port 14. Floating fine particles such as tobacco smoke flow in through inlet 13 of the floating fine particles and an air flow which flows in through air inlet 12 is used to discharge them through open discharge port 14 of the floating fine particles. An object which is brought close to this discharge port 14 can be exposed to the floating fine particles such as tobacco smoke. Changes in the corneum moisture content after consecutive exposure to tobacco smoke or exhaust gas fine particles for the aforementioned three months were analyzed by using a Corneometer™ (Courage and Khazaka, Germany). The corneum moisture content is one of the indicators of skin conditions and is known to be an indicator which allows determination of the amount of moisture in the corneum. That is, in the case of rough skin, the corneum moisture content is smaller. A higher value of the corneum moisture content indicates better skin conditions. […] For each of these, the blank value of the corneum moisture content was measured. For the controls, “the group with no drug applied” and “the non-exposure group”, which was not exposed to tobacco smoke or exhaust gas, were used. Using the tobacco smoke exposure apparatus shown in the aforementioned FIG. 1, the medial aspect of the human forearm onto which the aforementioned ingredients had been applied was exposed to tobacco smoke or exhaust gas for 10 minutes a day for three months and the corneum moisture content of that area was investigated.

[2] = tested on: medial aspect of a human forearm exposed to tobacco smoke; test: Testing of suppression of oxidation (ultraweak chemiluminescence of the skin); type: in vivo; conditions: 1.0 wt % solution applied on human forearm; tobacco smoke 90 seconds; measured for 30 minutes from 60 seconds after exposure
Text: It is known that a phenomenon called “ultraweak chemiluminescence: CL” occurs on the skin of a living body including a human. This ultraweak chemiluminescence is known to occur in the radiation deactivation process of electrons from the excited state to the ground state.
For example, radicals such as singlet oxygen, excited carbonic acid, excited carbonyl, etc. are known to be this luminescent substance in a living body. Therefore, if this ultraweak chemiluminescence can be monitored, it is possible to adequately identify the oxidation reactions occurring on the human skin.
An 1.0 wt % aqueous solution of each of 1) thiotaurine (from Sogo Pharmaceutical Co., Ltd.), 2) hypotaurine (from Sogo Pharmaceutical Co., Ltd.), 3) glutathione, 4) tannin and 5) vitamin C derivative [L-ascorbic acid phosphate (magnesium)] was applied on the medial aspect of a human forearm. For each of these, a chemiluminescence detector (model OX-7 from Tohoku Electronic Industries Co., Ltd.) whose sample chamber had been modified for a human arm was used to carry out a 30 minute measurement to obtain the blank value of the ultraweak chemiluminescence for each of them. For the control, a solution of 1.0 wt % α-tocopherol was used.
In the same manner as in the aforementioned environmental stress suppression testing which used the corneum moisture content of the skin as the indicator, the medial aspect of a human forearm was brought close to the floating fine particles exposure apparatus shown in FIG. 1 to expose the medial aspect of the forearm, onto which the aforementioned ingredient(s) had been applied, to tobacco smoke for 90 seconds. Sixty seconds after exposure, the ultraweak chemiluminescence of the exposed part was measured for 30 minutes in the same manner as described above. […]

N[C@@H](CCC(=O)N[C@@H](CS)C(=O)NCC(=O)O)C(=O)O [glutathione]
suppression of the aggravation of skin conditions (reduction in the corneum moisture content) due to exposure to tobacco smoke or exhaust gas [1]: effectively prevented
reduction of the ultraweak chemiluminescence (oxidation reactions) on the skin [2]: particularly significant

NCCS(=O)O [hypotaurine]
suppression of the aggravation of skin conditions (reduction in the corneum moisture content) due to exposure to tobacco smoke or exhaust gas [1]: effectively prevented

NCCS(=O)(O)=S [thiotaurine]
suppression of the aggravation of skin conditions (reduction in the corneum moisture content) due to exposure to tobacco smoke or exhaust gas [1]: effectively prevented
reduction of the ultraweak chemiluminescence (oxidation reactions) on the skin [2]: particularly significant

Cc1c(C)c2c(c(C)c1O)CC[C@@](C)(CCC[C@H](C)CCC[C@H](C)CCCC(C)C)O2 [α-tocopherol, reference compound]
suppression of the aggravation of skin conditions (reduction in the corneum moisture content) due to exposure to tobacco smoke or exhaust gas [1]: could only minimally suppress
reduction of the ultraweak chemiluminescence (oxidation reactions) on the skin [2]: could not effectively suppress

CC1=C(/C=C/C(C)=C/C=C/C(C)=C/C=C/C=C(C)/C=C/C=C(C)/C=C/C2=C(C)CCCC2(C)C)C(C)(C)CCC1 [β-carotene, reference compound]
suppression of the aggravation of skin conditions (reduction in the corneum moisture content) due to exposure to tobacco smoke or exhaust gas [1]: could only minimally suppress
